From US9492471B2, “Methods of treating a disease or disorder associated with Bruton'S Tyrosine Kinase” (Celgene Avilomics Research, Inc., priority 2013, dated 2016) come the findings set out here.

Assay in all cases: HotSpot kinase profiling
What all share (format): biochemical

In experiment [1] the target is T1, GRK3 (Homo sapiens, UniProt P35626).
T1 construct: purchased Reaction Biology Corp
T1 sequence (P35626 1-688): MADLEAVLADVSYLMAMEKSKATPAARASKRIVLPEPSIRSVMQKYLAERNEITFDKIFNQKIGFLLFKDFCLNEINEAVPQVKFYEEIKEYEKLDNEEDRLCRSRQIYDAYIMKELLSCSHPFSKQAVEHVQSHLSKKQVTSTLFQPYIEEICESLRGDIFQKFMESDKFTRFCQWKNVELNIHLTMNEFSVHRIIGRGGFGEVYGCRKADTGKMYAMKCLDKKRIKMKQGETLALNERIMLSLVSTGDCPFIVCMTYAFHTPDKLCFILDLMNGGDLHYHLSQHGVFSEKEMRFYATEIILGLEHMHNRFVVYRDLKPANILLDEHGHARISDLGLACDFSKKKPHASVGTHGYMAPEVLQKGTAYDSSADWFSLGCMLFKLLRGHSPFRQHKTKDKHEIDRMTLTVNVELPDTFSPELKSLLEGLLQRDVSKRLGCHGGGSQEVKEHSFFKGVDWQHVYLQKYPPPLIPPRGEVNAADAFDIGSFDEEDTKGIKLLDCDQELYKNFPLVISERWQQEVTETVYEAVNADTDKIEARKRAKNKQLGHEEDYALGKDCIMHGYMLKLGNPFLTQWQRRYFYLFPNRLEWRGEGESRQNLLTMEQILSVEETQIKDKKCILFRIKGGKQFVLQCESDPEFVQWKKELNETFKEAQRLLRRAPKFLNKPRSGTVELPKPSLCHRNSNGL
Summed up: (§1)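 Radio-isotope P81 filtration format. Substrate + required cofactors in reaction buffer, kinase added, 2 h RT. Stop, wash with 0.1% phosphoric acid, detect. % inhibition vs DMSO; mean of duplicates where repeated.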

The target of experiment [2] is T2, HGK/MAP4K4 (Homo sapiens, UniProt O95819).
T2 construct: purchased Reaction Biology Corp
T2 sequence (O95819 whole entry): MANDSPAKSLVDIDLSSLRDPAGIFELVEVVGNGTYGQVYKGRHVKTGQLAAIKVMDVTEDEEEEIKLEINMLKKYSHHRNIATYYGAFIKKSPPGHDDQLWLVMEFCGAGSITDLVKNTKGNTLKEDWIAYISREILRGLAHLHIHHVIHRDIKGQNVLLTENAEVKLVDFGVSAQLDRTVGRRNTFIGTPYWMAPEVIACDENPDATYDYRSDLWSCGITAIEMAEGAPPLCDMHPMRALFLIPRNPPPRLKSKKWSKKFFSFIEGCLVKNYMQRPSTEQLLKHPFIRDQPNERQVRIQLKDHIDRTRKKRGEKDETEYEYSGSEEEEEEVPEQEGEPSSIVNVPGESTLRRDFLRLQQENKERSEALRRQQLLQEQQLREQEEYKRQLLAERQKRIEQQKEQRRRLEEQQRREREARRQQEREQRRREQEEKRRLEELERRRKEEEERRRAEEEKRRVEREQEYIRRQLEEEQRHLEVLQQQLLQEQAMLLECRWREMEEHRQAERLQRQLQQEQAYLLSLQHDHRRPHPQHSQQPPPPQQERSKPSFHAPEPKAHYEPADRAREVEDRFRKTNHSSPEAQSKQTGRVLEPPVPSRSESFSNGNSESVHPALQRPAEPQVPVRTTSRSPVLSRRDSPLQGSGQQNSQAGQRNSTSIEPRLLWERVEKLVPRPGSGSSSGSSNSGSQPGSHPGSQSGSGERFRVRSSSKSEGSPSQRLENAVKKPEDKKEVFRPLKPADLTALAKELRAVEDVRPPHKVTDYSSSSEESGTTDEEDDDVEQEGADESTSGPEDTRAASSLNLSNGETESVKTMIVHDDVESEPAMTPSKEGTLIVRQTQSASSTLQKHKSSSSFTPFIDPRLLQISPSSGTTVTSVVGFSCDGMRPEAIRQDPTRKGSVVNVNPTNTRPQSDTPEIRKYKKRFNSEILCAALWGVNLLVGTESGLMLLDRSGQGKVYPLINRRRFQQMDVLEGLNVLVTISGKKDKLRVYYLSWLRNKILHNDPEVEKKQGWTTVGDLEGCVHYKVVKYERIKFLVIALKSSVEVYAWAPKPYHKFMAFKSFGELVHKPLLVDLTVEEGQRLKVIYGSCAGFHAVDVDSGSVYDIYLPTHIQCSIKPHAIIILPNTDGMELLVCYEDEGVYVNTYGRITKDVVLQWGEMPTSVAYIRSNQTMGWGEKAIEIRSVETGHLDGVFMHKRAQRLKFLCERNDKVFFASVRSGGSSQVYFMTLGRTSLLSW
The essentials: as §1

The target in experiment [3] is T3, PKCiota (Homo sapiens, UniProt P41743).
T3 construct: purchased Reaction Biology Corp
T3 sequence (P41743 1-596): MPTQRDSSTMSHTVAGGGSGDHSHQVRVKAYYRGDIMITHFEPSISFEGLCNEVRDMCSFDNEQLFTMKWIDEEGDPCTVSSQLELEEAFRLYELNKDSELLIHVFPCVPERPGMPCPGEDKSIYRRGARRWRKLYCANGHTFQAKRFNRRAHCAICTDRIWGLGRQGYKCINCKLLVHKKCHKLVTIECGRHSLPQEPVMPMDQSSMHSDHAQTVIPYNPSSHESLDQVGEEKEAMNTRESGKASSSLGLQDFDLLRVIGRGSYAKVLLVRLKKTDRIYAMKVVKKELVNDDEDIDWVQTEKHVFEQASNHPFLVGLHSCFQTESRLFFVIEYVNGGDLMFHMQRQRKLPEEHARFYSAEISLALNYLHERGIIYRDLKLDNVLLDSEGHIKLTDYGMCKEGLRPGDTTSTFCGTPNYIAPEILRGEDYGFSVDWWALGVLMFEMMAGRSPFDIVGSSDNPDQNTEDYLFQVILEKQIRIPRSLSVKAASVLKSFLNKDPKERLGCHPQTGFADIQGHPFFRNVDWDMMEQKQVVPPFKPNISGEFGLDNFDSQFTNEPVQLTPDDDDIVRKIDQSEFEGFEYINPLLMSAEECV
The essentials: as §1

For experiment [4], the target named is T4, PKG1b (Homo sapiens, UniProt Q13976).
T4 construct: purchased Reaction Biology Corp
T4 sequence (Q13976 1-686 isoform Q13976-2): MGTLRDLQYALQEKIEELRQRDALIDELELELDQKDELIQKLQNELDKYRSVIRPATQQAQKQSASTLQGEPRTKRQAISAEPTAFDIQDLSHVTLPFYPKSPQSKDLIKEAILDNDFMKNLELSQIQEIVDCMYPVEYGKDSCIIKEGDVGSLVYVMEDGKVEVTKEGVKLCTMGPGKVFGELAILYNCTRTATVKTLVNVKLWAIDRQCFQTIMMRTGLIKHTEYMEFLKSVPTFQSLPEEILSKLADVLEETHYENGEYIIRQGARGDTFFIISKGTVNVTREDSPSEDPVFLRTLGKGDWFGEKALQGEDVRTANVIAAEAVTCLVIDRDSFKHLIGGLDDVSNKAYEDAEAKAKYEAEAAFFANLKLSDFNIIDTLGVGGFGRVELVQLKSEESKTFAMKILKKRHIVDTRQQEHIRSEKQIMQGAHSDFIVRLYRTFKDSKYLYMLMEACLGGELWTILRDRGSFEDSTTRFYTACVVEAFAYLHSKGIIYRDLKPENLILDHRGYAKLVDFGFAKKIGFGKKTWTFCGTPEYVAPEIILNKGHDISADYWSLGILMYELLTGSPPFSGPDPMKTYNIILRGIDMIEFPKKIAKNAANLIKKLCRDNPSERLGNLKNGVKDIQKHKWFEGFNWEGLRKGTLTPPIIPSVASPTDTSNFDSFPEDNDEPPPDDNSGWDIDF
Summed up:
as §1

[5] abbreviates: read-out: % Enzyme Activity (relative to DMSO controls) Run 1.
Setting [6] is: read-out: % Enzyme Activity (relative to DMSO controls) Run 2.

Read-outs that look alike come from different tables or passages of the source.

For the molecule `C=CC(=O)Nc1cccc(Nc2nc(Nc3ccc(OCCOC)c(F)c3)ncc2F)c1` [Compound 2], the inhibition (usually the change of the read-out against control, counted positive when it falls) at 3 µM was -0.2% in experiment [1], 1.27% in experiment [2], -5.47% in experiment [3] and 13.8% in experiment [4]. The remaining activity at 3 µM in experiment [1] (setting [5]) was found to be 99.5%; in experiment [1] (setting [6]), 101%; in experiment [2] (setting [5]) it was 98.9%; in experiment [2] (setting [6]), 98.6%; in experiment [3] (setting [5]), 105%; in experiment [3] (setting [6]) it was 106%. The remaining activity at 3 µM in experiment [4] (setting [5]) was determined as 85.4%; in experiment [4] (setting [6]), 87.1%.
